These results are taken from patent US20250346575A1, “ISOINDOLINONE DERIVATIVE HAVING GLUTARIMIDE MOTHER NUCLEUS, AND USE THEREOF” (KOREA RESEARCH INSTITUTE OF CHEMICAL TECHNOLOGY, priority 2021, published 2025).

As usually defined, the IC50 is the point on the concentration scale where inhibition reaches its midpoint. A high value points to a need for much substance.

One data set deals with Cancer cells (KG-1). Description: Cytotoxicity assay, WST-1, KG-1. The data set is classed as cell-based. The settings on record: for IC50: Homo sapiens, KG-1 cells, 72 hours, WST-1; for activity (in words): monocyclic heteroaryl R1 and aryl R2 compared to bicyclic heteroaryl R1 (Compounds 8, 9, and 26). How it is done: To evaluate the effect of the compounds of the present disclosure on cancer cells, a cytotoxicity assay was conducted as follows.
Cancer cells (KG-1) were seeded at a concentration of 10,000 cells per well into a 96-well plate. Then, the cells were treated with predetermined concentrations of compounds of the Examples and comparative substances (comparative compounds 1, 2, 3). After 72 hours, the cells were incubated with WST-1 reagent for one hour. Then, absorbance was measured at 450 nm using a spectramax spectrophotometer to assess the degree of cancer cell apoptosis. The IC50 (μM) values were calculated using the measured values with the GraphPad Prism program and the measurements are summarized in Table 1.
A general note: Tetrazolium dyes change colour on reduction, which living cells bring about.

The target of another data set is T1, GSPT1 protein (Homo sapiens, UniProt P15170+Q96SW2).
T1 construct: endogenous in cells; host or cells: KG-1 cells
T1 sequence (P15170 whole entry): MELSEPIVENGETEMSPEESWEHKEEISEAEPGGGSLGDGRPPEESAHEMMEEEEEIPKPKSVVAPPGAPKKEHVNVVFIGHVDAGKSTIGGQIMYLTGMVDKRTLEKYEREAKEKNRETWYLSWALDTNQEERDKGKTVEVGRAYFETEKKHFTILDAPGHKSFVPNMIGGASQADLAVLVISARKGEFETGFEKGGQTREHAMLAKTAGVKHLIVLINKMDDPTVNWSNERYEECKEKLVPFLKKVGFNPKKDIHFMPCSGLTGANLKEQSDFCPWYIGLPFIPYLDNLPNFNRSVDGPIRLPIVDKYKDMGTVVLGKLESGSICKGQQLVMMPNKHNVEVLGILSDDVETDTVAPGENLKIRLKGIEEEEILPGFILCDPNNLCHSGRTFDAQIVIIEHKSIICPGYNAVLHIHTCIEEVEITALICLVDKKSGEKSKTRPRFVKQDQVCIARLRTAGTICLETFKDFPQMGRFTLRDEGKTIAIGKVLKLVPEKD
T1 sequence (Q96SW2 whole entry): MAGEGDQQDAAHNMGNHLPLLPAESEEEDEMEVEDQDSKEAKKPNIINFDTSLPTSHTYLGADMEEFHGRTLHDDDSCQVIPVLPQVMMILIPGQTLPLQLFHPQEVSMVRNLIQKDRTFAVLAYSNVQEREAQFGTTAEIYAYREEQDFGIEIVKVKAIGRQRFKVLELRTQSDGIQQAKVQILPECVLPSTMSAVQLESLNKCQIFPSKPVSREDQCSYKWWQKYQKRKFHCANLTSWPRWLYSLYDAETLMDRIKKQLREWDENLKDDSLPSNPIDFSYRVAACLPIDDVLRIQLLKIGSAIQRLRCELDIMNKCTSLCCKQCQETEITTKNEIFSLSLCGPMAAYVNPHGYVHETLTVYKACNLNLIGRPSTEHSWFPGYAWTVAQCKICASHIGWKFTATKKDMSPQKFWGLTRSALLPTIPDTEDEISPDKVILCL
T1 sequence (Q16531 whole entry partner): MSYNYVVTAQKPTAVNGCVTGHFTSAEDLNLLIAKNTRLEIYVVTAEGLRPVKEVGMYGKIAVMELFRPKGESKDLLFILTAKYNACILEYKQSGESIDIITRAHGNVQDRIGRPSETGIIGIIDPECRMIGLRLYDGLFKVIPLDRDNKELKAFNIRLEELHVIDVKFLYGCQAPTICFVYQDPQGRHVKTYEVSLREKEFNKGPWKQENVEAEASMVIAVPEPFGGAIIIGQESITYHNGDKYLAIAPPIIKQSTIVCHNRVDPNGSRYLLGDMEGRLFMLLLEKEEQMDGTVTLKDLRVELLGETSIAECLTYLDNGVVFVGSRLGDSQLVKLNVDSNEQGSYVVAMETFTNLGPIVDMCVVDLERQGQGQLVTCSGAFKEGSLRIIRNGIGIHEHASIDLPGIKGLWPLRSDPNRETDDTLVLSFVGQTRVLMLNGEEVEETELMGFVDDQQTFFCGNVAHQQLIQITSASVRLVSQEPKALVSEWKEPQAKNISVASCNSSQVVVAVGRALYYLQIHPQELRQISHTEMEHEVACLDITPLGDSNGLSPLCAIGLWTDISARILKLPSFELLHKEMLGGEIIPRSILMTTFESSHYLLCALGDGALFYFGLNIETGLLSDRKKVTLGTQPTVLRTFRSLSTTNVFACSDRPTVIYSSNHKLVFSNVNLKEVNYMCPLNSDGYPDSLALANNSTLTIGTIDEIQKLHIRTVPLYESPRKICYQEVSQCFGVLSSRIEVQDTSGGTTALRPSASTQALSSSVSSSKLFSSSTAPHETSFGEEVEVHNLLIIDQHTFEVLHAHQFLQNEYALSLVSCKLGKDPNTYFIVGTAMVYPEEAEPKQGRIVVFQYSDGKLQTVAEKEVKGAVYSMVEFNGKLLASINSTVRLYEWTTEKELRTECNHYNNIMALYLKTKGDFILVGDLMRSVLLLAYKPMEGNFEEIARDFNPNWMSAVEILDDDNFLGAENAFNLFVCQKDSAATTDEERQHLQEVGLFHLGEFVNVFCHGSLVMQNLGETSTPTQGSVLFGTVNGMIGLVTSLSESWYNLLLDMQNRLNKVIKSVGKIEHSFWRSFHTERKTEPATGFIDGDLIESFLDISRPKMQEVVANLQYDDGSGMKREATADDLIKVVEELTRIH
Description: Substrate protein degradation activity of CRBN (Western blot). Particulars: KG-1 cell lines, 6 hours, FIG. 1. Format: cell-based. The source says:
Examination was made to determine whether the compounds of the present disclosure bind to cereblon (CRBN) and inhibit the function of CRBN. In this regard, the compounds were investigated for degradation activity for Ikaros (IKZF1) protein (Chamberlain, P. P. et al., 2014) or GSPT1 protein (Matyskiela, M. E. et al., 2016) which CRBN protein degrades when binding to thalidomide and analogs thereof.
In order to assay the compounds according to the present disclosure for degradation activity for Ikaros (IKZF1) protein or GSPT1 protein, experiments were carried out as follows.
KG-1 cells were seeded at a density of 5×10^5 cells per well into 12-well plates, and each compound was added at predetermined concentration to the wells. After 6 hours, cell lysates were collected using TBSN buffer. The degradation activity of Ikaros protein was assessed using an antibody against Ikaros protein, and the degradation activity of GSPT1 protein was evaluated using an antibody against GSPT1 protein through Western blot analysis. In this regard, equal amounts of protein were loaded into each well of a 4-15% gradient gel, and after electrophoresis, proteins were transferred to a PVDF membrane. Each protein was then bound with primary antibodies, followed by the attachment of HRP-conjugated secondary antibodies, and developed using an HRP substrate.
On the technique in general: A western blot detects proteins with antibodies after separation by electrophoresis.

`O=C1CCC(N2Cc3cc(CNC(=O)c4noc5cc(Cl)ccc45)ccc3C2=O)C(=O)N1` (stereo not drawn) [Compound 10, 6-Chloro-N-((2-(2,6-dioxopiperidin-3-yl)-1-oxoisoindolin-5-yl)methyl)benzo[d]isoxazole-3-carboxamide] came in with an IC50 with Cancer cells (KG-1) of 0.0001 to 0.01 µM. Also, the “cytotoxic activity against KG-1 and NCI-H1155 cancer cells (in words)” value with Cancer cells (KG-1) (R1 bicyclic heteroaryl compared to monocyclic aryl (comparative substance) or heteroaryl (Compounds 37 and 38)) is listed as “more potent cytotoxic activity”. On GSPT1 protein, the “degradation of GSPT1 protein” value is given as “selectively promote the degradation of GSPT1 protein”. For the compound `Cn1cc(Br)cc1C(=O)NCc1ccc2c(c1)CN(C1CCC(=O)NC1=O)C2=O` (stereo not drawn) [Compound 38, 4-Bromo-N-((2-(2,6-dioxopiperidin-3-yl)-1-oxoisoindolin-5-yl)methyl)-1-methyl-1H-pyrrole-2-carboxamide], the IC50 in the data set on Cancer cells (KG-1) is 1 to 10 µM. With `Cn1cc(-c2ccccc2)cc1C(=O)NCc1ccc2c(c1)CN(C1CCC(=O)NC1=O)C2=O` (stereo not drawn) [Compound 39, N-((2-(2,6-Dioxopiperidin-3-yl)-1-oxoisoindolin-5-yl)methyl)-1-methyl-4-phenyl-1H-pyrrole-2-carboxamide], in the data set on Cancer cells (KG-1), the concentration for half-maximal inhibition (IC50) lay within 0.0001 to 0.01 µM and the “activity (in words)” value is reported as “significantly more potent activity”. The like results for `Cn1cc(-c2cccc(Cl)c2)cc1C(=O)NCc1ccc2c(c1)CN(C1CCC(=O)NC1=O)C2=O` (stereo not drawn) [Compound 40, 4-(3-Chlorophenyl)-N-((2-(2,6-dioxopiperidin-3-yl)-1-oxoisoindolin-5-yl)methyl)-1-methyl-1H-pyrrole-2-carboxamide] were, in that order, 0.0001 to 0.01 µM and “significantly more potent activity”. `Cc1c(C(=O)NCc2ccc3c(c2)CN(C2CCC(=O)NC2=O)C3=O)nn(CC(C)C)c1-c1cccc(Cl)c1` (stereo not drawn) [Compound 41, 5-(3-Chlorophenyl)-N-((2-(2,6-dioxopiperidin-3-yl)-1-oxoisoindolin-5-yl)methyl)-1-isobutyl-4-methyl-1H-pyrazole-3-carboxamide] registered an IC50 in the data set with Cancer cells (KG-1) of 0.0001 to 0.01 µM.

`Cc1c(C(=O)NCc2ccc3c(c2)CN(C2CCC(=O)NC2=O)C3=O)nn(-c2ccccc2)c1-c1cccc(Cl)c1` (stereo not drawn) [Compound 42, 5-(3-chlorophenyl)-N-((2-(2,6-dioxopiperidin-3-yl)-1-oxoisoindolin-5-yl)methyl)-4-methyl-1-phenyl-1H-pyrazole-3-carboxamide] returned a half-inhibitory concentration (IC50) in the data set with Cancer cells (KG-1) of 0.0001 to 0.01 µM. On the same count and under the same terms, next, `Cc1c(C(=O)NCc2ccc3c(c2)CN(C2CCC(=O)NC2=O)C3=O)nn(Cc2ccc(F)cc2)c1-c1cccc(Cl)c1` (stereo not drawn) [Compound 43]: 0.0001 to 0.01 µM; `O=C1CCC(N2Cc3cc(CNC(=O)c4nc5cc(Cl)ccc5s4)ccc3C2=O)C(=O)N1` (stereo not drawn) [Compound 44, 5-chloro-N-((2-(2,6-dioxopiperidin-3-yl)-1-oxoisoindolin-5-yl)methyl)benzo[d]thiazole-2-carboxamide]: 0.01 to 1 µM.

In the data set with Cancer cells (KG-1), `Cc1cnc(C(=O)NCc2ccc3c(c2)CN(C2CCC(=O)NC2=O)C3=O)cc1-c1ccccc1` (stereo not drawn) [Compound 45, N-((2-(2,6-Dioxopiperidin-3-yl)-1-oxoisoindolin-5-yl)methyl)-5-methyl-4-phenylpicolinamide] showed an IC50 of 0.0001 to 0.01 µM. On the same count and under the same terms, next, `O=C1CCC(N2Cc3cc(CNC(=O)c4cc(-c5ccccc5)c(Cl)cn4)ccc3C2=O)C(=O)N1` (stereo not drawn) [Compound 46, 5-Chloro-N-((2-(2,6-dioxopiperidin-3-yl)-1-oxoisoindolin-5-yl)methyl)-4-phenylpicolinamide]: 0.0001 to 0.01 µM. Still for that read-out and setting: next, `O=C1CCC(N2Cc3cc(CNC(=O)c4ccccc4-c4ccccc4)ccc3C2=O)C(=O)N1` (stereo not drawn) [Compound 52, N-((2-(2,6-Dioxopiperidin-3-yl)-1-oxoisoindolin-5-yl)methyl)-[1,1′-biphenyl]-2-carboxamide]: 10 to 50 µM; `O=C1CCC(N2Cc3cc(CNC(=O)C4(c5ccc(Cl)cc5)CCCC4)ccc3C2=O)C(=O)N1` (stereo not drawn) [Compound 53, 1-(4-Chlorophenyl)-N-((2-(2,6-dioxopiperidin-3-yl)-1-oxoisoindolin-5-yl)methyl)cyclopentane-1-carboxamide]: 10 to 50 µM. Same read-out and setting: next, `O=C1CCC(N2Cc3cc(CNC(=O)C4(c5ccccc5)CCCC4)ccc3C2=O)C(=O)N1` (stereo not drawn) [Compound 54, N-((2-(2,6-Dioxopiperidin-3-yl)-1-oxoisoindolin-5-yl)methyl)-1-phenylcyclopentane-1-carboxamide]: 10 to 50 µM. In the case of `O=C1CCC(N2Cc3cc(CNC(=O)C4CCN(c5ccccc5)C4=O)ccc3C2=O)C(=O)N1` (stereo not drawn) [Compound 55, N-((2-(2,6-Dioxopiperidin-3-yl)-1-oxoisoindolin-5-yl)methyl)-2-oxo-1-phenylpyrrolidine-3-carboxamide], the IC50 in the data set with Cancer cells (KG-1) lay in the range of 1 to 10 µM.
